Data set [1] can be described thus: β-Lactam stability in rat plasma. The data set is classed as in vitro ADME. Conditions: normal rat plasma, room temperature; read-out: Rat Plasma Stability (T1/2; min). The method, boiled down: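 Compounds incubated in normal rat plasma at room temperature, sampled into acetonitrile from 2 to 480 min. Supernatants analysed by HPLC-MS on C18, extracted ion chromatograms of parent and parent+18 (H2O adduct) integrated; T½ = ln(2)/k from single-phase exponential decay fit.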

In a further data set the target is T1, Thrombin (Homo sapiens, UniProt P00734).
T1 construct: Thrombin; 0.2 μM in 50% glycerol (7.34 μg/mL)
Nature of the data set: Dose response assay for protease inhibitors: thrombin (FXIa fold selectivity). The data set is classed as biochemical. Conditions: fold selectivity for FXIa over thrombin.

The next data set concerns the target T2, Factor Xa (Homo sapiens, UniProt P00742).
T2 construct: Factor Xa; 0.2 μM in 50% glycerol (9.2 μg/mL)
Nature of the data set: Dose response assay for protease inhibitors: Factor Xa (FXIa fold selectivity). The data set is classed as biochemical. Conditions: fold selectivity for FXIa over Factor Xa.

The nature of another data set: physchem. Type of data set: physicochemical. Conditions: pH 7.4, aqueous buffer, kinetic from dmso stock. As for the experimental part:
The test compound was prepared at 200 μM in PBS from a 10 mM DMSO stock solution. The final DMSO concentration was 2%. The PBS buffer samples were mixed thoroughly followed by incubation at room temperature for 24 h. At the end of the incubation, the PBS buffer samples were centrifuged and supernatants analyzed by HPLC.

Data set [2] can be described thus: in vitro. Conditions: both, human, plasma, pH 7.4. As for the experimental part: The following procedure was used to determine the plasma protein binding of a test compound in pooled plasma from human (mixed gender) via equilibrium dialysis in a 96-well plate format. The dialysate compartment is loaded with phosphate-buffered saline (pH 7.4) and the sample side is loaded with plasma spiked with the test compound at a concentration of 10 μM. After loading, samples are covered and incubated for 4 hours at 37° C. After incubation, each compartment is sampled, diluted with acetonitrile/buffer and centrifuged. The supernatants are analyzed by HPLC-MS/MS. The amount measured in the plasma compartment includes both free and bound drug, while that on the buffer side represents free drug only; the differences are used to calculate the percentage plasma protein bound.

Data set [3] in a line: in vitro. Conditions: both, human, microsomes, pH 7.4. As for the experimental part:
The following procedure was used to determine the stability of a test compound in pooled liver microsomes from human (mixed gender) in 96-well plate format. The test compound was quantified at five time points by HPLC-MS/MS analysis. The final microsomal protein concentration in the assay was 0.1 mg/mL. […] The test compound was pre-incubated with human liver microsomes in phosphate buffer (pH 7.4) for 5 min in a 37° C. shaking waterbath. The reaction was initiated by adding NADPH-generating system and incubated for 0, 15, 30, 45, and 60 minutes. The reaction was stopped by transferring the incubation mixture to acetonitrile/methanol. Samples were then mixed and centrifuged and the supernatants used for HPLC-MS/MS analysis. Peak areas corresponding to the test compound were recorded. The compound remaining was calculated by comparing the peak area at each time point to time zero.

The target in another data set is T3, human Factor XIa (Homo sapiens, UniProt P03951).
T3 construct: Enzyme: Factor XIa; 0.25 μM in 50% glycerol (20 μg/mL)
T3 sequence (P03951 388-625 limits assumed): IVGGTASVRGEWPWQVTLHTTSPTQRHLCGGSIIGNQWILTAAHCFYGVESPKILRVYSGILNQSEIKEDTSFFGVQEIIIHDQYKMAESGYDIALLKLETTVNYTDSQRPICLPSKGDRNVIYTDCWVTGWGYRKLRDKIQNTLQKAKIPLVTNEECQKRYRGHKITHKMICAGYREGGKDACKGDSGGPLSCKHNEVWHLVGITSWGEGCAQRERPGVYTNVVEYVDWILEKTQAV
T3 sequence (P03951 19-387 partner limits assumed): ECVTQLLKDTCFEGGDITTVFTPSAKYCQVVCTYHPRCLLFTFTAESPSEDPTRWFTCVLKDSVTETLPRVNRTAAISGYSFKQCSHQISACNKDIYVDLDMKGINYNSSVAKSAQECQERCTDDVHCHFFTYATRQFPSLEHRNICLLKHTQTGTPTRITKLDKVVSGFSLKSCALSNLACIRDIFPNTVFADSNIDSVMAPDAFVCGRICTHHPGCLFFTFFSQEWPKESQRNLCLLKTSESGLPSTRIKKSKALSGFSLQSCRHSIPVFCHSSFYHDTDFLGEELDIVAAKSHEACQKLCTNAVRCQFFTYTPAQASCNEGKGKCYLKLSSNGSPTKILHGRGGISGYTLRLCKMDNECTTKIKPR
Nature of the data set: Factor XIa enzyme inhibition assay (IC50, purified enzyme). The data set is classed as biochemical. Particulars: purified enzyme 0.25 nM, substrate 50 μM; read-out: Potency hFXIa IC50. A digest of the protocol:
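Fluorogenic Glp-Pro-Arg-AMC cleavage, 50 μM substrate, 0.25 nM enzyme, in 20 mM Hepes pH 7.4, 150 mM NaCl, 0.02% Tween 20. Serial two-fold compound dilutions from starting concentrations of 20, 2 and 0.2 μM. Read every minute for 30 min at 30° C; IC50 from a four-parameter fit of dose-response.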

The next data set relates to Trypsin. As to the kind of experiment: Dose response assay for protease inhibitors: trypsin (FXIa fold selectivity). The data set is classed as biochemical. Particulars: fold selectivity for FXIa over trypsin.

T2 sequence (P00742 235-488 limits assumed): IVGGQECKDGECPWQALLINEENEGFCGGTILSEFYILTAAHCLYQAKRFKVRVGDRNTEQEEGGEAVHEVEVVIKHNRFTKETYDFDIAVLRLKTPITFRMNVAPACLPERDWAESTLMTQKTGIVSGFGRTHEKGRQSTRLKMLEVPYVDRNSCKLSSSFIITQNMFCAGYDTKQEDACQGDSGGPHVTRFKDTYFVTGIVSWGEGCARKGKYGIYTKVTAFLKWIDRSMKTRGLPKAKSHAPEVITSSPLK
T2 sequence (P00742 41-179 partner limits assumed): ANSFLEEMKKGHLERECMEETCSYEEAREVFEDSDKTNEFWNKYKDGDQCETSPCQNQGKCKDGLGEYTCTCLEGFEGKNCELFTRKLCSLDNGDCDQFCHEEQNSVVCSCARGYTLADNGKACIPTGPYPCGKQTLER

For orientation: solubility means the dissolved amount per volume that the medium holds. A lower solubility goes with little dissolved substance. In general, fraction unbound refers to free concentration divided by total concentration. A low value points to little free substance. A word on the IC50: it is the concentration needed to halve the response being measured. `C[C@@H](NC(=O)N1C(=O)[C@H](Cc2ccnc(N)c2)[C@H]1C(=O)O)C1CCCCC1` [Example 38]: the half-life in data set [1] is greater than 1.67 h. For the same compound, the “FXIa Fold Selectivity Thrombin” value at Thrombin is given as “I (“I” indicates >1000)”. The “FXIa Fold Selectivity FXa” value at Factor Xa is “I (“I” indicates >1000)”. The solubility at 4 h in the data set “physchem” was greater than 100 µM. Besides, the fraction unbound at 4 h, 10 µM in the data set “in vitro [2]” was greater than 0.1. This compound gave a half-life at 0.1 µM in the data set “in vitro [3]” greater than 1 h. Further, at human Factor XIa, the IC50 is less than 10 nM. Also, the “FXIa Fold Selectivity Trypsin” value in the data set with Trypsin is “H (“H” indicates 500-1000)”.

Consider `Nc1cc(C[C@H]2C(=O)N(C(=O)N[C@@H](C3CCCCC3)C(F)(F)F)[C@@H]2C(=O)O)ccn1` [Example 88], for which the half-life in data set [1] was greater than 1.67 h. Besides, at Thrombin, the “FXIa Fold Selectivity Thrombin” value is reported as “I (“I” indicates >1000)”. The “FXIa Fold Selectivity FXa” value at Factor Xa is reported as “I (“I” indicates >1000)”. The compound further displayed a solubility at 4 h in “physchem” greater than 100 µM. This compound also had a fraction unbound at 4 h, 10 µM in “in vitro [2]” greater than 0.1. In addition, the half-life at 0.1 µM in “in vitro [3]” is greater than 1 h. Besides, the IC50 at human Factor XIa is less than 10 nM. In addition, the “FXIa Fold Selectivity Trypsin” value in the data set with Trypsin is reported as “G (“G” indicates 1-500)”.

In the case of `C[C@@H](NC(=O)N1C(=O)[C@H](Cc2ccnc(N)c2)[C@H]1C(=O)O)c1ccc2c(c1)OC(F)(F)O2` [Example 91], in data set [1], the half-life was greater than 1.67 h. In addition, the “FXIa Fold Selectivity Thrombin” value at Thrombin was “I (“I” indicates >1000)”. In addition, the “FXIa Fold Selectivity FXa” value on Factor Xa was “I (“I” indicates >1000)”. The solubility at 4 h in the data set “physchem” was greater than 100 µM. In addition, in “in vitro [2]”, the fraction unbound at 4 h, 10 µM lay in the range of 0.02 to 0.1. This compound displayed a half-life at 0.1 µM in “in vitro [3]” greater than 1 h. Moreover, the IC50 at human Factor XIa was less than 10 nM. For the same compound, the “FXIa Fold Selectivity Trypsin” value with Trypsin was “G (“G” indicates 1-500)”.

Turning to `CC(C)C(=O)OCOC(=O)Nc1cc(C[C@H]2C(=O)N(C(=O)N[C@H](C)c3ccc4c(c3)OC(F)(F)O4)[C@@H]2C(=O)O)ccn1` [Example 100], the “FXIa Fold Selectivity Thrombin” value on Thrombin is given as “G (“G” indicates 1-500)”. The “FXIa Fold Selectivity FXa” value at Factor Xa was “G (“G” indicates 1-500)”. Further, in “physchem”, the solubility at 4 h was greater than 100 µM. In addition, the fraction unbound at 4 h, 10 µM in “in vitro [2]” is less than 0.02. The same compound registered a half-life at 0.1 µM in “in vitro [3]” of less than 0.5 h. Further, the IC50 on human Factor XIa was in the range of 100 to 1000 nM. Further, in the data set with Trypsin, the “FXIa Fold Selectivity Trypsin” value is listed as “G (“G” indicates 1-500)”.

Turning to `C[C@@H](NC(=O)N1C(=O)C(Cc2ccnc(Cl)c2)[C@H]1C(=O)O)c1ccc2c(c1)OC(F)(F)O2` (some centres unmarked) [Example 128], the half-life in data set [1] was greater than 1.67 h. This compound came in with a solubility at 4 h in the data set “physchem” greater than 100 µM. The compound also yielded a free fraction (fraction unbound) at 4 h, 10 µM in “in vitro [2]” of less than 0.02. In the data set “in vitro [3]”, this compound gave a half-life at 0.1 µM greater than 1 h. Also, on human Factor XIa, the IC50 was greater than 1000 nM.

Turning to `O=C(O)[C@@H]1[C@@H](CCc2cccc(Cl)c2)C(=O)N1C(=O)N[C@@H](C1CCCCC1)C(F)(F)F` [Example 134], the half-life in data set [1] is greater than 1.67 h. The “FXIa Fold Selectivity Thrombin” value at Thrombin is “G (“G” indicates 1-500)”. For the same compound, the “FXIa Fold Selectivity FXa” value on Factor Xa is “G (“G” indicates 1-500)”. Besides, in the data set “physchem”, the solubility at 4 h is greater than 100 µM. The same compound gave a fraction unbound at 4 h, 10 µM in “in vitro [2]” of less than 0.02. The half-life at 0.1 µM in “in vitro [3]” is 0.5 to 1 h. The IC50 on human Factor XIa lay in the range of 100 to 1000 nM. Further, the “FXIa Fold Selectivity Trypsin” value in the data set with Trypsin was “G (“G” indicates 1-500)”.

In turn, `CCOC(=O)[C@@H]1C(CCc2cccc(Cl)c2)C(=O)N1C(=O)N[C@@H](C1CCCCC1)C(F)(F)F` (some centres unmarked) [Example 158] came in with a solubility at 4 h in “physchem” of less than 1 µM. For the same compound, the unbound share (fraction unbound) at 4 h, 10 µM in the data set “in vitro [2]” is greater than 0.1. The same compound had a half-life at 0.1 µM in “in vitro [3]” of 0.5 to 1 h. For the same compound, the IC50 on human Factor XIa lay within 100 to 1000 nM.

As for `C[C@@H](NC(=O)N1C(=O)[C@H](Cc2ccncc2)[C@H]1C(=O)O)c1ccc2c(c1)OC(F)(F)O2` [Example 169], the half-life in data set [1] is greater than 1.67 h. Moreover, the “FXIa Fold Selectivity Thrombin” value on Thrombin was “H (“H” indicates 500-1000)”. Further, the “FXIa Fold Selectivity FXa” value at Factor Xa is on record as “G (“G” indicates 1-500)”. In “physchem”, this compound came in with a solubility at 4 h greater than 100 µM. This compound also displayed a fraction unbound at 4 h, 10 µM in the data set “in vitro [2]” of 0.02 to 0.1. In addition, the half-life at 0.1 µM in the data set “in vitro [3]” is greater than 1 h. Also, the half-inhibitory concentration (IC50) on human Factor XIa was in the range of 100 to 1000 nM. Also, the “FXIa Fold Selectivity Trypsin” value in the data set with Trypsin is reported as “G (“G” indicates 1-500)”.

These data come from patent US11198673B2, “Therapeutic compounds and compositions” (eXIthera Pharmaceuticals, Inc., priority 2014, dated 2021).
